From patent publication US20120184583A1, “MODULATORS OF ATP-BINDING CASSETTE TRANSPORTERS” (VERTEX PHARMACEUTICALS INCORPORATED, priority 2003, published 2012)

Target: T1, ΔF508-CFTR stably expressed in NIH3T3 cells (Homo sapiens, UniProt P13569, DEL508-508)
T1 construct: expressed in transfected cells
Experiment: Membrane potential optical (FRET/VIPR) assay for ΔF508-CFTR potentiation
Assay type: cell-based
Conditions: NIH3T3, read-out: % Efficacy (relative modulating efficacy in comparison with genistein), normalized to peak genistein response
From the text: Membrane potential optical methods for assaying ΔF508-CFTR potentiation properties of compounds.
These voltage sensitive assays are based on the change in fluorescence resonant energy transfer (FRET) between the membrane-soluble, voltage-sensitive dye, DiSBAC2(3), and a fluorescent phospholipid, CC2-DMPE, which is attached to the outer leaflet of the plasma membrane and acts as a FRET donor. Changes in membrane potential (Vm) cause the negatively charged DiSBAC2(3) to redistribute across the plasma membrane and the amount of energy transfer from CC2-DMPE changes accordingly. The changes in fluorescence emission were monitored using VIPR™ II, which is an integrated liquid handler and fluorescent detector designed to conduct cell-based screens in 96- or 384-well microtiter plates.
To identify potentiators of ΔF508-CFTR, a double-addition HTS assay format was developed (FIG. 1A). During the first addition, a Cl^−-free medium with or without test compound was added to each well. After 22 sec, a second addition of Cl^−-free medium containing 2-10 μM forskolin was added to activate ΔF508-CFTR. The extracellular Cl^− concentration following both additions was 28 mM, which promoted Cl^− efflux in response to ΔF508-CFTR activation and the resulting membrane depolarization was optically monitored using the FRET-based voltage-sensor dyes. The double-addition format has several advantages. First, it enables separation of compounds that act independently of forskolin-activated ΔF508-CFTR. Second, it allows compounds that act from the cytoplasmic surface of the channel to cross the plasma membrane and take effect. Lastly, fluorescent changes that arise from test compound addition alone can be identified.
High-throughput assay format for identifying potentiators of ΔF508-CFTR stably expressed in NIH3T3 cells.
FIG. 1A: Double-addition assay format in which Cl^−-free medium was added with or without the test compound prior to forskolin addition. The cells were incubated at 27° C. for 16-24 hr prior to use.
• Bath Solution #1: (in mM)NaCl 160, KCl 4.5, CaCl2 2, MgCl2 1, HEPES 10, pH 7.4 with NaOH. • Chloride-free bath solution: Chloride salts in Bath Solution #1 are substituted with gluconate salts. • CC2-DMPE: Prepared as a 10 mM stock solution in DMSO and stored at −20° C. • DiSBAC2(3): Prepared as a 10 mM stock in DMSO and stored at −20° C.
NIH3T3 mouse fibroblasts stably expressing ΔF508-CFTR are used for optical measurements of membrane potential. The cells are maintained at 37° C. in 5% CO2 and 90% humidity in Dulbecco's modified Eagle's medium supplemented with 2 mM glutamine, 10% fetal bovine serum, 1×NEAA, β-ME, 1×pen/strep, and 25 mM HEPES in 175 cm^2 culture flasks. For all optical assays, the cells were seeded at 30,000/well in 384-well matrigel-coated plates and cultured for 2 hrs at 37° C. before culturing at 27° C. for 24 hrs.

T1 sequence (P13569 with tags, fused parts or gaps DEL508-508): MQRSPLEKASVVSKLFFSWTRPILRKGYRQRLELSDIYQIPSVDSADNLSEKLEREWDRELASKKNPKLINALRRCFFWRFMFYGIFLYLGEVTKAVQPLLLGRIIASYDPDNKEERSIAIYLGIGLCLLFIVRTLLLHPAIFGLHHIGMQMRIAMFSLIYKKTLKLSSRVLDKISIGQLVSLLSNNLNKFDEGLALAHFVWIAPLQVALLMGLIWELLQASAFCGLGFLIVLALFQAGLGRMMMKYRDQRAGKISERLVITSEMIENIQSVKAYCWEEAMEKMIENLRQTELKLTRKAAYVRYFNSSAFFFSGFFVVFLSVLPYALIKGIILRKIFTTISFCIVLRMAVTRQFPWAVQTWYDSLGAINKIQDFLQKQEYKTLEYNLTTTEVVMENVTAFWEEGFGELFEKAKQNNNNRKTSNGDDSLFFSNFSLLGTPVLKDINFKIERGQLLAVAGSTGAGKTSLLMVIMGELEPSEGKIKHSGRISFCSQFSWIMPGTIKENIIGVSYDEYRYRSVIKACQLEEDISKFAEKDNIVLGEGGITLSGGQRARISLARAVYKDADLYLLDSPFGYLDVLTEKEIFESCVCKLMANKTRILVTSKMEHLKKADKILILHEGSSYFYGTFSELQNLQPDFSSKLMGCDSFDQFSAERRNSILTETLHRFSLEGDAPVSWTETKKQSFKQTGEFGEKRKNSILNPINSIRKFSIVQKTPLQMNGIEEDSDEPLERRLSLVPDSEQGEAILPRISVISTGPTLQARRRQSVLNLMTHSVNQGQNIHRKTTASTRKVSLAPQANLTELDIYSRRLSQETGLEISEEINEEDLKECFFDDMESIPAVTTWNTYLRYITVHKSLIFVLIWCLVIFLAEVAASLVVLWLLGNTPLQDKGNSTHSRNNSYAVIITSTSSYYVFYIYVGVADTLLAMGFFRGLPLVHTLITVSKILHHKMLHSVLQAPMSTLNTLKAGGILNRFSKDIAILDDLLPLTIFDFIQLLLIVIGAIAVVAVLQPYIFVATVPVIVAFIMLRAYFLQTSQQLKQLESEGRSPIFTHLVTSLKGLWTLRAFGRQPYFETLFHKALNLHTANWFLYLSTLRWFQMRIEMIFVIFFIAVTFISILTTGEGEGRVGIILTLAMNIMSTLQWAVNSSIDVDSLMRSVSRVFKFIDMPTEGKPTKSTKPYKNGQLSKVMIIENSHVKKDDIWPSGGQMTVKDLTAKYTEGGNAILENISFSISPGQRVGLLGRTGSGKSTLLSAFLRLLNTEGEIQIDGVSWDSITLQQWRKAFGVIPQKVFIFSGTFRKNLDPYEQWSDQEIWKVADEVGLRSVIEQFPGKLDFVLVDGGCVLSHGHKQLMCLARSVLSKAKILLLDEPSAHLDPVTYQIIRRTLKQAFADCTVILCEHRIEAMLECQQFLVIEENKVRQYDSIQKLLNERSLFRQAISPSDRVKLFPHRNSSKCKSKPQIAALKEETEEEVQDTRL

SMILES | Emax
Oc1ccc(-c2nnn[nH]2)cc1-c1cc(-c2ccccc2)n[nH]1 [IA-54] | 35 to 75%
Fc1ccccc1-c1cc(-c2ccc3c(c2)OC(F)(F)O3)[nH]n1 [I-10] | 35 to 75%
FC(F)(F)Oc1ccc(-c2cc(-c3ccccc3)n[nH]2)cc1 [I-16] | 35 to 75%
COc1cccc(O)c1-c1cc(-c2ccccc2)n[nH]1 [IA-3] | 35 to 75%
Cc1ccc(-c2cc(-c3ccccc3Cl)[nH]n2)c(O)c1 [IA-58] | 35 to 75%
Fc1ccccc1-c1cc(-c2cccc(OC(F)(F)F)c2)[nH]n1 [I-18] | 35 to 75%
CC(C)c1ccc(O)c(-c2cc(-c3ccccc3)[nH]n2)c1 [IA-26] | > 75%
CCCc1ccc(O)c(-c2cc(-c3ccccc3)[nH]n2)c1 [IA-14] | > 75%
Cc1cccc(-c2cc(-c3ccccc3)n[nH]2)c1 [I-19] | 35 to 75%
Cc1ccc(O)c(-c2cc(C3CCCCC3)n[nH]2)c1 [IA-71] | 35 to 75%
COc1ccc(O)c(-c2cc(-c3ccccc3C(F)(F)F)n[nH]2)c1 [IA-16] | 35 to 75%
Fc1ccccc1-c1cc(-c2ccccc2Cl)[nH]n1 [I-7] | 35 to 75%
Cc1ccc(O)c(-c2cc(-c3cccs3)n[nH]2)c1 [IA-28] | > 75%
Cc1ccc(O)c(-c2cc(-c3ccccc3-c3ccncc3)n[nH]2)c1 [IA-29] | 35 to 75%
Oc1ccc(F)cc1-c1cc(-c2ccccc2C(F)(F)F)[nH]n1 [IA-6] | > 75%
Oc1ccccc1-c1cc(-c2ccc(F)cc2)[nH]n1 [IA-8] | 35 to 75%
Fc1ccccc1-c1cc(-c2ccccc2F)[nH]n1 [I-6] | 35 to 75%
Cc1ccc(O)c(-c2cc(-c3c(F)ccc(C)c3F)n[nH]2)c1 [IA-56] | 35 to 75%
COc1ccc(O)c(-c2cc(-c3ccccc3)[nH]n2)c1 [IA-18] | 35 to 75%
Cc1ccc(O)c(-c2cc(-c3ccc(C(F)(F)F)c(C)c3)n[nH]2)c1 [IA-17] | 35 to 75%
Cc1ccc(O)c(-c2cc(-c3ccccc3Cl)[nH]n2)c1 [IA-48] | < 35%
c1ccc(-c2cc(-c3cccc4c3OCO4)[nH]n2)cc1 [I-15] | 35 to 75%
Cc1ccc(O)c(-c2cc(-c3ccc4c(c3)OCO4)n[nH]2)c1 [IA-25] | 35 to 75%
COc1cccc(-c2cc(-c3cc(C)ccc3O)[nH]n2)c1 [IA-66] | 35 to 75%
COc1ccc(O)c(-c2cc(-c3ccc(F)cc3)[nH]n2)c1 [IA-2] | 35 to 75%
Oc1ccc(-c2cc(-c3ccccc3O)[nH]n2)cc1 [IA-33] | 35 to 75%
Cc1ccc(O)c(-c2cc(-c3ccc(F)c(F)c3)n[nH]2)c1 [IA-44] | 35 to 75%
Cc1ccccc1-c1cc(-c2ccccc2O)n[nH]1 [IA-24] | 35 to 75%

SMILES | Emax
Cc1ccc(O)c(-c2cc(-c3cc(C(F)(F)F)nn3-c3ccc([N+](=O)[O-])cc3)n[nH]2)c1 [IA-65] | 35 to 75%
COc1ccc(-c2cc(-c3cc(C)ccc3O)[nH]n2)cc1C(F)(F)F [IA-72] | 35 to 75%
Cc1ccc(-c2cc(-c3cc(C)ccc3O)n[nH]2)cc1 [IA-59] | 35 to 75%
CCSc1ncccc1-c1cc(-c2ccccc2)n[nH]1 [I-3] | 35 to 75%
Cc1ccc(O)c(-c2cc(-c3ccc(-c4cccc(C(F)(F)F)c4)o3)n[nH]2)c1 [IA-7] | 35 to 75%
Cc1ccc(O)c(-c2cc(-c3ccccc3O)n[nH]2)c1 [IA-34] | < 35%
O=[N+]([O-])c1ccccc1-c1cc(-c2cc(F)ccc2O)[nH]n1 [IA-20] | > 75%
Oc1ccc(F)cc1-c1cc(-c2ccccc2)n[nH]1 [IA-21] | 35 to 75%
Oc1ccccc1-c1cc(-c2ccccc2Cl)[nH]n1 [IA-68] | 35 to 75%
Oc1cc(F)ccc1-c1cc(-c2ccccc2)[nH]n1 [IA-70] | 35 to 75%
O=[N+]([O-])c1ccccc1-c1cc(-c2cc(Cl)ccc2O)n[nH]1 [IA-52] | > 75%
Cc1ccc(O)c(-c2cc(-c3ccccc3C#N)n[nH]2)c1 [IA-30] | 35 to 75%
Oc1cccc(-c2cc(-c3ccccc3O)[nH]n2)c1 [IA-43] | > 75%
COc1ccc(O)c(-c2cc(-c3ccccc3C)[nH]n2)c1 [IA-62] | 35 to 75%
CCCSc1ncccc1-c1cc(-c2ccccc2)n[nH]1 [I-5] | 35 to 75%
Cc1ccc(-c2cc(-c3ccc(F)cc3)[nH]n2)c(O)c1 [IA-63] | < 35%
Cc1ccc(O)c(-c2cc(-c3cc(C(F)(F)F)oc3C)n[nH]2)c1 [IA-42] | > 75%
Cc1ccc(O)c(-c2cc(-c3ccc(Br)cc3)[nH]n2)c1 [IA-35] | > 75%
Cc1ccc(O)c(-c2cc(-c3ccccc3[N+](=O)[O-])[nH]n2)c1 [IA-5] | > 75%
CC(=O)Nc1cccc(-c2cc(-c3cc(C)ccc3O)[nH]n2)c1 [IA-40] | 35 to 75%
Cc1ccc(O)c(-c2cc(-c3cc(C(C)(C)C)oc3C)n[nH]2)c1 [IA-50] | 35 to 75%
Cc1ccc(O)c(-c2cc(-c3ccccc3OC(F)(F)F)n[nH]2)c1 [IA-45] | > 75%
Cc1ccc(O)c(-c2cc(-c3ccccc3C(F)(F)F)n[nH]2)c1 [IA-41] | 35 to 75%
Cc1ccc(O)c(-c2cc(-c3cccnc3)n[nH]2)c1 [IA-27, 4-Methyl-2-(5-pyridin-3-yl-1H-pyrazol-3-yl)phenol] | 35 to 75%
COc1ccc(-c2cc(-c3ccccc3O)n[nH]2)cc1 [IA-11] | 35 to 75%
COc1ccc(-c2cc(-c3ccccc3O)n[nH]2)cc1OC [IA-1] | 35 to 75%
CSc1ncccc1-c1cc(-c2ccccc2O)n[nH]1 [IA-37] | 35 to 75%

The remaining lines, values ahead:

Emax | SMILES
35 to 75% | COc1ccccc1-c1cc(-c2cc(C)ccc2O)[nH]n1 [IA-94]
35 to 75% | CCOc1ncccc1-c1cc(-c2ccccc2O)[nH]n1 [IA-101]
35 to 75% | Cc1ccc(O)c(-c2cc(-c3cccnc3Sc3ccc(Cl)cc3)n[nH]2)c1 [IA-86]
35 to 75% | Cc1ccc(O)c(-c2cc(-c3cccc([N+](=O)[O-])c3)n[nH]2)c1 [IA-87]
35 to 75% | Cc1ccc(O)c(-c2cc(-c3nc(C)c(-c4ccc5c(c4)OCC5)s3)n[nH]2)c1 [IA-95]
35 to 75% | Cc1ccc(O)c(-c2cc(-c3c(Cl)cccc3Cl)n[nH]2)c1 [IA-105]
< 35% | Cc1ccc(O)c(-c2cc(-c3cc(Cl)ccc3F)n[nH]2)c1 [IA-115]
35 to 75% | Cc1ccc(O)c(-c2cc(-c3ccc(-c4ccc(S(C)(=O)=O)cc4)o3)n[nH]2)c1 [IA-76]
< 35% | Cc1ccc(O)c(-c2cc(-c3ccc(C(F)(F)F)cc3)[nH]n2)c1 [IA-103]
35 to 75% | Cc1ccc(O)c(-c2cc(-c3ccc([N+](=O)[O-])cc3)n[nH]2)c1 [IA-102]
35 to 75% | Cc1ccc(O)c(-c2cc(-c3cc(C)on3)n[nH]2)c1 [IA-107]
35 to 75% | Cc1ccc(O)c(-c2cc(C(Cc3ccccc3)NS(=O)(=O)c3cccc4ccccc34)n[nH]2)c1 (stereo not shown) [IA-91]
35 to 75% | O=[N+]([O-])c1ccccc1-c1cc(-c2ccccc2O)n[nH]1 [IA-97]
35 to 75% | Cc1ccc(O)c(-c2cc(-c3ccc(F)cc3)[nH]n2)c1 [IA-104]
35 to 75% | Oc1ccccc1-c1cc(-c2ccc(C(F)(F)F)cc2F)n[nH]1 [IA-98]
35 to 75% | Cc1ccc(O)c(-c2cc(-c3cc(Cl)ccc3C(F)(F)F)n[nH]2)c1 [IA-89]
35 to 75% | O=[N+]([O-])c1ccc(-c2cc(-c3cc(C(F)(F)F)ccc3O)[nH]n2)cc1 [IA-114]
< 35% | Cc1ccc(O)c(-c2cc(-c3ccccc3SC(F)F)n[nH]2)c1 [IA-79]
35 to 75% | Cc1ccc(-c2cc(-c3ccc(C)cc3O)n[nH]2)cc1 [IA-82]
35 to 75% | CCOc1ccccc1-c1cc(-c2cc(C)ccc2O)[nH]n1 [IA-80]
35 to 75% | Oc1ccc(Cl)cc1-c1cc(-c2ccc(F)cc2)[nH]n1 [IA-88]
35 to 75% | Cc1ccc(-c2cc(-c3cccc(F)c3)[nH]n2)c(O)c1 [IA-106]
35 to 75% | Oc1ccccc1-c1cc(-c2c(F)cccc2F)n[nH]1 [IA-78]
35 to 75% | Cc1ccc(O)c(-c2cc(-c3ccncc3)n[nH]2)c1 [IA-93]
35 to 75% | Cc1cc(-c2cc(-c3cc(F)ccc3O)n[nH]2)c(C(F)(F)F)o1 [IA-92]
35 to 75% | Cc1ccc(O)c(-c2cc(-c3ccccc3Oc3ccccc3)n[nH]2)c1 [IA-84]

Same assay, conditions: normalized to peak genistein response

SMILES | % Efficacy (relative modulating efficacy in comparison with genistein)
Oc1ccccc1-c1cc(-c2ccccc2Cl)[nH]n1 [IA-113] | + (an efficacy range of <35% when compared to genistein)
